For 38 molecules, IC50 results are on record in patent US11414431B2, “Substituted pyrazolo[1,5-a]pyrimidines as TYK2 inhibitors” (Nimbus Lakshmi, Inc., priority 2018, dated 2022).

Each structure is given as a SMILES string. Some results are limits rather than exact numbers.

A word on the IC50: it is the concentration that inhibits the measured activity by half. Lower therefore signals inhibition by little substance.

One assay has as its system IL-12 induced STAT4 phosphorlyation mediated by TYK2/JAK2. Kind of assay: IL-12 Induced pSTAT4 in Human PBMC. The format is cell-based. Conditions: 1.7 ng/mL IL-12 for 30 minutes. Summed up: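 Thawed human PBMC pre-incubated with compound 1 hr at 37° C (0.1% DMSO final), then stimulated 30 minutes with IL-12 at 1.7 ng/mL final. pSTAT4 and total STAT4 measured in cell lysates with MSD reagents.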
Molecule `CNc1cc(-c2cn(C3COC3)c3ncccc23)nc2c(C(=O)N[C@H]3CC[C@@H]3O)cnn12` [Compound I-558] registered a concentration for half-maximal inhibition (IC50) below 0.1 µM.
Still for that read-out and setting: the same measure for `CNc1cc(-c2cn([C@@H]3COC[C@@H]3F)c3ncccc23)nc2c(C(=O)N[C@H]3CC[C@H]3O)cnn12` [Compound I-571]: below 0.1 µM; for `CNc1cc(-c2cn([C@H]3COC[C@H]3F)c3ncccc23)nc2c(C(=O)NC3CC[C@H]3O)cnn12` (some centres unmarked) [Compound I-573]: below 0.1 µM.
Still for that read-out and setting: next, `CNc1cc(-c2cn([C@H]3COC[C@H]3F)c3ncccc23)nc2c(C(=O)N[C@H]3CC[C@H]3O)cnn12` [Compound I-574]: below 0.1 µM; `CNc1cc(-c2cn([C@@H]3COC[C@H]3OC)c3ncccc23)nc2c(C(=O)N[C@@H]3CC[C@@H]3O)cnn12` [Compound I-583]: 0.1 to 0.5 µM; `CNc1cc(-c2cn([C@@H]3COC[C@H]3OC)c3ncccc23)nc2c(C(=O)NC3CC[C@H]3O)cnn12` (some centres unmarked) [Compound I-587]: 0.5 to 1 µM.
On the same count and under the same terms, the same measure for `CNc1cc(-c2cn([C@@H]3CCOC[C@@H]3F)c3ncccc23)nc2c(C(=O)NC3CC[C@H]3O)cnn12` (some centres unmarked) [Compound I-588]: 0.1 to 0.5 µM.
In the case of `CNc1cc(-c2cn([C@H]3CCOC[C@H]3F)c3ncccc23)nc2c(C(=O)NC3CC[C@H]3O)cnn12` (some centres unmarked) [Compound I-591], the concentration for half-maximal inhibition (IC50) was in the range of 0.5 to 1 µM.
Same read-out and setting: next, `CNc1cc(-c2cn([C@H]3C[C@@H](O)C3)c3ncccc23)nc2c(C(=O)N[C@H]3CC[C@@H]3OC)cnn12` [Compound I-606]: below 0.1 µM; `CNc1cc(-c2cn([C@@H]3CCOC3)c3ncccc23)nc2c(C(=O)NC3CC[C@@H]3OC)cnn12` (some centres unmarked) [Compound I-609]: below 0.1 µM.
Same read-out and setting: next, `CNc1cc(-c2cn([C@@H]3CCOC3)c3ncccc23)nc2c(C(=O)N[C@H]3CC[C@@H]3OC)cnn12` [Compound I-610]: below 0.1 µM; `CNc1cc(-c2cn([C@H]3CCOC3)c3ncccc23)nc2c(C(=O)NC3CC[C@@H]3OC)cnn12` (some centres unmarked) [Compound I-612]: below 0.1 µM; `CNc1cc(-c2cn([C@H]3CCOC3)c3ncccc23)nc2c(C(=O)N[C@H]3CC[C@@H]3OC)cnn12` [Compound I-613]: below 0.1 µM.
Same read-out and setting: next, `CNc1cc(-c2cn([C@@H]3CCN(C)C3)c3ncccc23)nc2c(C(=O)NC3CC[C@@H]3OC)cnn12` (some centres unmarked) [Compound I-615]: below 0.1 µM.
As for `CNc1cc(-c2cn([C@@H]3CCN(C)C3)c3ncccc23)nc2c(C(=O)N[C@H]3CC[C@@H]3OC)cnn12` [Compound I-616], the IC50 is below 0.1 µM.
The same measure, in the same setting: next, `CNc1cc(-c2cn([C@H]3CCN(C)C3)c3ncccc23)nc2c(C(=O)NC3CC[C@@H]3OC)cnn12` (some centres unmarked) [Compound I-618]: below 0.1 µM; `CNc1cc(-c2cn([C@H]3CCN(C)C3)c3ncccc23)nc2c(C(=O)N[C@H]3CC[C@@H]3OC)cnn12` [Compound I-619]: below 0.1 µM; `CNc1cc(-c2cn([C@@H]3COC[C@@H]3F)c3ncccc23)nc2c(C(=O)NC3CC[C@@H]3OC)cnn12` (some centres unmarked) [Compound I-621]: below 0.1 µM.
`CNc1cc(-c2cn([C@@H]3COC[C@@H]3F)c3ncccc23)nc2c(C(=O)N[C@H]3CC[C@@H]3OC)cnn12` [Compound I-622] yielded a concentration for half-maximal inhibition (IC50) below 0.1 µM.
On the same count and under the same terms, next, `CNc1cc(-c2cn([C@H]3COC[C@H]3F)c3ncccc23)nc2c(C(=O)N[C@H]3CC[C@@H]3OC)cnn12` [Compound I-625]: below 0.1 µM; `CNc1cc(-c2cn([C@@H]3COC[C@H]3O)c3ncccc23)nc2c(C(=O)N[C@@H]3CC[C@H]3OC)cnn12` [Compound I-629]: below 0.1 µM.
The same measure, in the same setting: next, `CNc1cc(-c2cn([C@H]3COC[C@@H]3O)c3ncccc23)nc2c(C(=O)NC3CC[C@@H]3OC)cnn12` (some centres unmarked) [Compound I-630]: 0.1 to 0.5 µM; `CNc1cc(-c2cn([C@H]3COC[C@@H]3O)c3ncccc23)nc2c(C(=O)N[C@H]3CC[C@@H]3OC)cnn12` [Compound I-631]: below 0.1 µM.
For the molecule `CNc1cc(-c2cn([C@H]3COC[C@@H]3OC)c3ncccc23)nc2c(C(=O)NC3CC[C@@H]3OC)cnn12` (some centres unmarked) [Compound I-633], the half-maximal inhibitory concentration (IC50) is below 0.1 µM.
Take `CNc1cc(-c2cn([C@H]3COC[C@@H]3OC)c3ncccc23)nc2c(C(=O)N[C@H]3CC[C@@H]3OC)cnn12` [Compound I-634]: the concentration for half-maximal inhibition (IC50) is below 0.1 µM.
With `CNc1cc(-c2cn([C@@H]3COC[C@H]3OC)c3ncccc23)nc2c(C(=O)NC3CC[C@@H]3OC)cnn12` (some centres unmarked) [Compound I-636], the IC50 was below 0.1 µM.
For the molecule `CNc1cc(-c2cn([C@@H]3COC[C@H]3OC)c3ncccc23)nc2c(C(=O)N[C@H]3CC[C@@H]3OC)cnn12` [Compound I-637], the IC50 is below 0.1 µM.
`CNc1cc(-c2cn([C@H]3CN(C)C[C@@H]3F)c3ncccc23)nc2c(C(=O)N[C@H]3CC[C@@H]3OC)cnn12` [Compound I-640]: the IC50 is below 0.1 µM.
On the same count and under the same terms, next, `CNc1cc(-c2cn([C@@H]3CN(C)C[C@H]3F)c3ncccc23)nc2c(C(=O)NC3CC[C@@H]3OC)cnn12` (some centres unmarked) [Compound I-642]: below 0.1 µM.
Still for that read-out and setting: next, `CNc1cc(-c2cn([C@@H]3CN(C)C[C@H]3F)c3ncccc23)nc2c(C(=O)N[C@H]3CC[C@@H]3OC)cnn12` [Compound I-643]: below 0.1 µM.
Same read-out and setting: the same measure for `CNc1cc(-c2cn([C@@H]3CN(C)C[C@H]3OC)c3ncccc23)nc2c(C(=O)NC3CC[C@@H]3OC)cnn12` (some centres unmarked) [Compound I-645]: below 0.1 µM; for `CNc1cc(-c2cn([C@@H]3CN(C)C[C@H]3OC)c3ncccc23)nc2c(C(=O)N[C@H]3CC[C@@H]3OC)cnn12` [Compound I-646]: below 0.1 µM.
For the molecule `CNc1cc(-c2cn([C@H]3CN(C)C[C@@H]3OC)c3ncccc23)nc2c(C(=O)N[C@H]3CC[C@@H]3OC)cnn12` [Compound I-649], the IC50 is below 0.1 µM.
The molecule `CNc1cc(-c2cn([C@H]3CCOC[C@@H]3F)c3ncccc23)nc2c(C(=O)NC3CC[C@@H]3OC)cnn12` (some centres unmarked) [Compound I-651] gave an IC50 below 0.1 µM.
Still for that read-out and setting: next, `CNc1cc(-c2cn([C@@H]3CCOC[C@H]3F)c3ncccc23)nc2c(C(=O)NC3CC[C@@H]3OC)cnn12` (some centres unmarked) [Compound I-652]: below 0.1 µM.

The assay is the same for the next values; noted with them: 0.5 h, 1.7 ng/mL IL-12 for 30 minutes.
For the molecule `CNc1cc(-c2cn([C@@H]3CCOC[C@H]3F)c3ncccc23)nc2c(C(=O)NC3CC[C@H]3O)cnn12` (stereo partly drawn) [Compound I-592, 5-(1-((3S,4R)-3-Fluorotetrahydro-2H-pyran-4-yl)-1H-pyrrolo[2,3-b]pyridin-3-yl)-N-((cis-1,2)-2-hydroxycyclobutyl)-7-(methylamino)pyrazolo[1,5-a]pyrimidine-3-carboxamide], the IC50 was below 0.1 µM.
Same read-out and setting: the same measure for `CNc1cc(-c2cn([C@H]3COC[C@H]3F)c3ncccc23)nc2c(C(=O)NC3CC[C@@H]3OC)cnn12` (stereo partly drawn) [Compound I-624, 5-(1-((3S,4S)-4-Fluorotetrahydrofuran-3-yl)-1H-pyrrolo[2,3-b]pyridin-3-yl)-N-((trans-1,2)-2-methoxycyclobutyl)-7-(methylamino)pyrazolo[1,5-a]pyrimidine-3-carboxamide]: below 0.1 µM.
The same measure, in the same setting: next, `CNc1cc(-c2cn([C@H]3CN(C)C[C@@H]3F)c3ncccc23)nc2c(C(=O)NC3CC[C@@H]3OC)cnn12` (stereo partly drawn) [Compound I-639, 5-(1-((3S,4S)-4-Fluoro-1-methylpyrrolidin-3-yl)-1H-pyrrolo[2,3-b]pyridin-3-yl)-N-((trans-1,2)-2-methoxycyclobutyl)-7-(methylamino)pyrazolo[1,5-a]pyrimidine-3-carboxamide]: below 0.1 µM.
